Experimental data published in patent US20250127790A1, “COMBINATION THERAPY USING VPS34 INHIBITORS” (Deciphera Pharmaceuticals, LLC, priority 2021, published 2025).

Assays:
[1] = test system: CT26 colorectal cancer cells; assay: Cytokine secretion assay, combination with cGAMP, CT26 cells; assay type: cell-based, mouse; settings: 24 hours, 5 μM Compound 1 or 10 μM Compound 2, 10 mg/mL cGAMP
Description: (§1) CT26 cells were treated for 24 hours with DMSO or VPS34 inhibitors (5 μM Compound 1 or 10 μM Compound 2) in combination with 10 mg/mL STING agonist cGAMP (green bars). Cells were washed with PBS and RNA was isolated using the PureLink RNA kit (#12183018A, Thermo Fisher Scientific) according to the manufacturer's protocol. Genomic DNA was removed using DNA-binding columns (RNeasy plus kit, #74134, Qiagen) and/or DNase treatment (#12185010, Thermo Fisher Scientific). RNA was quantified using NanoDrop (Thermo Fisher Scientific) and 50 ng/μL RNA was used for cDNA synthesis with SuperScript IV VILO Master Mix (#11756050, Thermo Fisher Scientific). Quantitative RT-PCR (qRT-PCR) was run with diluted cDNA (1:25 or 1:12.5), PowerUp SYBR Green Master Mix (#A25741, Thermo Fisher Scientific), and 200 nM primers (see below) on a CFX Connect RT-PCR system (BioRad). Data was analyzed using the ΔΔCT method. Results are mean±SEM of three independent experiments.
(§2) Cell culture medium was centrifuged at 1600 rpm for 10 min at 4° C. and obtained supernatant stored at −80° C. Cytokine levels were quantified using following Meso Scale Discovery (MSD) assays: mouse U-PLEX RANTES/CCL5 (#K152A2K) and U-PLEX IP-10/CXCL10 (#K152UFK). Assays were run on the SECTOR Quickplex Imager and analyzed using Discovery Workbench version 4.0 (MSD).

YUMM 1.7 melanoma cells [2] = assay: Cytokine secretion assay, combination with cGAMP, YUMM1.7 cells; assay type: cell-based, mouse; settings: 24 hours, 5 μM Compound 1 or 10 μM Compound 2, 10 mg/ml cGAMP
Description: as §1, with “YUMM1.7” for “CT26”, “mg/ml” for “mg/mL”
as §2

YUMM 1.7 melanoma cells [3] = assay: qRT-PCR, combination with cGAMP, YUMM1.7 cells; assay type: cell-based, Mouse; settings: 24 hours, 5 μM Compound 1 or 10 μM Compound 2, 10 mg/ml cGAMP
Description: as §1, with “YUMM1.7” for “CT26”, “mg/ml” for “mg/mL”

4T1 breast cancer cells [4] = assay: qRT-PCR, combination with cGAMP, 4T1 cells; assay type: cell-based, Mouse; settings: 24 hours, 5 μM Compound 1 or 10 μM Compound 2, 10 mg/ml cGAMP
Description: as §1, with “4T1” for “CT26”, “mg/ml” for “mg/mL”

4T1 breast cancer cells [5] = assay: Cytokine secretion assay, combination with cGAMP, 4T1 cells; assay type: cell-based, mouse; settings: 24 hours, 5 μM Compound 1 or 10 μM Compound 2, 10 mg/ml cGAMP
Description: as §1, with “4T1” for “CT26”, “mg/ml” for “mg/mL”
as §2

[6] = test system: CT26 colorectal cancer cells; assay: qRT-PCR, combination with cGAMP, CT26 cells; assay type: cell-based, Mouse; settings: 24 hours, 5 μM Compound 1 or 10 μM Compound 2, 10 mg/mL cGAMP
Description: as §1

Nc1nc2c(ncn2[C@@H]2O[C@@H]3COP(=O)(O)O[C@H]4[C@@H](O)[C@H](n5cnc6c(N)ncnc65)O[C@@H]4COP(=O)(O)O[C@@H]2[C@@H]3O)c(=O)[nH]1 [cGAMP, reference compound]
increased: CCL5 protein secretion [1] | CXCL10 protein secretion [1] | CCL5 protein secretion (YUMM 1.7 melanoma cells [2]) | CXCL10 protein secretion (YUMM 1.7 melanoma cells [2]) | CCL5 mRNA expression (YUMM 1.7 melanoma cells [3]) | CXCL10 mRNA expression (YUMM 1.7 melanoma cells [3]) | CCL5 mRNA expression (4T1 breast cancer cells [4]) | CXCL10 mRNA expression (4T1 breast cancer cells [4]) | CCL5 protein secretion (4T1 breast cancer cells [5]) | CXCL10 protein secretion (4T1 breast cancer cells [5]) | CCL5 mRNA expression [6] | CXCL10 mRNA expression [6]
